Assay results published in the supplement of paper PMC10307832.

Experiments:
Experiment in all cases: relative viability (nuclei count vs DMSO), 5 days (fraction); higher = more cells survive
NCI-H650 = test system: NCI-H650
How it was run: (§1)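 Relative viability equals treated-well nuclei counts divided by vehicle-well nuclei counts. Counts came from 4× images of lung cancer cell lines grown in 1536-well plates for 5 days after pin-tool dosing on the day after seeding. Dosing used one drug alone or a fixed anchor-drug dose plus five library-drug doses (not always all listed) in √10 steps, and values are medians of duplicate plates.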

SK-MES-1 = test system: SK-MES-1
How it was run: as §1

NCI-H2085 = test system: NCI-H2085
How it was run: as §1

H3255 = test system: H3255
How it was run: as §1

NCI-H2087 = test system: NCI-H2087
How it was run: as §1

NCI-H1793 = test system: NCI-H1793
How it was run: as §1

HCC-827 = test system: HCC-827
How it was run: as §1

LCLC-103H = test system: LCLC-103H
How it was run: as §1

NCI-H1563 = test system: NCI-H1563
How it was run: as §1

NCI-H520 = test system: NCI-H520
How it was run: as §1

EPLC-272H = test system: EPLC-272H
How it was run: as §1

NCI-H1993 = test system: NCI-H1993
How it was run: as §1

SMILES: Clc1ccc(Nc2nnc(Cc3ccncc3)c3ccccc23)cc1 [Vatalanib] + C[C@]1(O)C[C@@H](c2nc(-c3ccc4ccc(-c5ccccc5)nc4c3)c3c(N)nccn32)C1 [Linsitinib] (partner 1 µM)
- relative viability (NCI-H650; first compound 1.265 µM): 0.723
- relative viability (NCI-H650; first compound 4 µM): 0.833
- relative viability (SK-MES-1; first compound 0.04 µM): 1.04
- relative viability (SK-MES-1; first compound 0.1265 µM): 1.03
- relative viability (SK-MES-1; first compound 0.4 µM): 1.17
- relative viability (SK-MES-1; first compound 1.265 µM): 1.02
- relative viability (SK-MES-1; first compound 4 µM): 0.928
- relative viability (NCI-H2085; first compound 0.04 µM): 0.919
- relative viability (NCI-H2085; first compound 0.1265 µM): 0.974
- relative viability (NCI-H2085; first compound 0.4 µM): 1.05
- relative viability (NCI-H2085; first compound 1.265 µM): 0.846
- relative viability (NCI-H2085; first compound 4 µM): 0.886
- relative viability (H3255; first compound 0.04 µM): 0.984
- relative viability (H3255; first compound 0.1265 µM): 0.902
- relative viability (H3255; first compound 0.4 µM): 0.702
- relative viability (H3255; first compound 1.265 µM): 0.932
- relative viability (H3255; first compound 4 µM): 0.921
- relative viability (NCI-H2087; first compound 0.04 µM): 1.2
- relative viability (NCI-H2087; first compound 0.1265 µM): 0.87
- relative viability (NCI-H2087; first compound 0.4 µM): 1.04
- relative viability (NCI-H2087; first compound 1.265 µM): 0.908
- relative viability (NCI-H2087; first compound 4 µM): 1.05
- relative viability (NCI-H1793; first compound 0.04 µM): 0.857
- relative viability (NCI-H1793; first compound 0.1265 µM): 0.693
- relative viability (NCI-H1793; first compound 0.4 µM): 0.816
- relative viability (NCI-H1793; first compound 1.265 µM): 0.719
- relative viability (NCI-H1793; first compound 4 µM): 0.819
- relative viability (HCC-827; first compound 0.04 µM): 0.992
- relative viability (HCC-827; first compound 0.1265 µM): 0.925
- relative viability (HCC-827; first compound 0.4 µM): 0.95
- relative viability (HCC-827; first compound 1.265 µM): 0.936
- relative viability (HCC-827; first compound 4 µM): 0.905
- relative viability (LCLC-103H; first compound 0.04 µM): 1.24
- relative viability (LCLC-103H; first compound 0.1265 µM): 1.07
- relative viability (LCLC-103H; first compound 0.4 µM): 1.24
- relative viability (LCLC-103H; first compound 1.265 µM): 1.06
- relative viability (LCLC-103H; first compound 4 µM): 1.05
- relative viability (NCI-H1563; first compound 0.04 µM): 1.42
- relative viability (NCI-H1563; first compound 0.1265 µM): 1.27
- relative viability (NCI-H1563; first compound 0.4 µM): 1.24
- relative viability (NCI-H1563; first compound 1.265 µM): 1.12
- relative viability (NCI-H1563; first compound 4 µM): 1.2
- relative viability (NCI-H520; first compound 0.04 µM): 0.901
- relative viability (NCI-H520; first compound 0.1265 µM): 0.888
- relative viability (NCI-H520; first compound 0.4 µM): 0.802
- relative viability (NCI-H520; first compound 1.265 µM): 0.86
- relative viability (NCI-H520; first compound 4 µM): 0.989
- relative viability (EPLC-272H; first compound 0.04 µM): 1.2
- relative viability (EPLC-272H; first compound 0.1265 µM): 1.19
- relative viability (EPLC-272H; first compound 0.4 µM): 1.27
- relative viability (EPLC-272H; first compound 1.265 µM): 1.18
- relative viability (EPLC-272H; first compound 4 µM): 1.31
- relative viability (NCI-H1993; first compound 0.04 µM): 0.699
- relative viability (NCI-H1993; first compound 0.1265 µM): 0.754
- relative viability (NCI-H1993; first compound 0.4 µM): 0.745
- relative viability (NCI-H1993; first compound 1.265 µM): 0.727
- relative viability (NCI-H1993; first compound 4 µM): 0.734
